{"source": "patent US8119689B2", "about": "“Adjuvants on the basis of bisacyloxypropylcystene conjugates and derivatives and their uses in pharmaceutical compositions” (Helmholtz-Zentrum Fuer Infektionsforschung GmbH, priority 2005, dated 2012)", "tested_on": "β-gal antigen-specific IgG isotypes", "assay": "β-gal-specific IgG isotypes in sera of immunized mice (isotype ELISA)", "type": "in vivo", "procedure": "FIG. 8: FIG. 8 provides the analysis of beta-Gal specific IgG isotypes in sera of immunized mice. Anti-beta-Gal specific IgG isotypes of the groups immunized with PBS, (control) beta-Gal+either BPPcysGlyc4armPEG or BPPcysPEG (FIG. 8A) or BPPcysAda or Ada alone (FIG. 8B), or beta-Gal alone of mice immunized by the i.n. or s.c. route were determined by ELISA. Results are expressed as end point titers. IgG titers represent the mean of five animals per experimental group. Differences were statistically significant at p<0.05 (*) with respect to mice receiving antigen alone. One representative out of four independent experiments is shown. SEM is indicated by vertical lines.\nIsotyp ELISA: 96-well Nunc-Immuno MaxiSorp assay plates (Nunc, Roskilde, Denmark) were coated with 100 μl of β-gal (Boehringer, Mannheim, Germany) at 5 μg/ml in 0.05 M carbonate buffer (pH 8.2) per well. Serial two-fold dilutions of sera or lavages in PBS with 1% BSA and 0.05% Tween 20 were added (100 μl/well), and plates incubated for 2 h at 37° C. After washing, biotin-conjugated rat anti-mouse IgG1 or IgG2a (Pharmingen, Hamburg, Germany) were added to determine IgG subclasses. Plates were incubated for an additional 1 h at 37° C. After four washes, 100 μl of peroxidase-conjugated streptavidin (Pharmingen) was added to cells and plates incubated at 37° C. for 30 min. After four washes, reactions were developed with ABTS in 0.1 M citrate-phosphate buffer (pH 4.35) containing 0.01% H2O2. To determine the concentration of IgG subclasses in serum, standard curves were obtained by coating the wells with an isotype-specific goat anti-mouse IgG, and then by incubating with purified mouse IgG1 or IgG2a antibodies (Dianova, Hamburg, Germany).", "note": "Entries after “also recorded” stand apart in the source; their conditions may differ.", "data": [{"smiles": "CCCCCCCCCCCCCCCC(=O)OCC(CSC[C@H](N)C(=O)N[C@H]1[C@@H](O)[C@H](n2cnc3c(N)ncnc32)O[C@@H]1CO)OC(=O)CCCCCCCCCCCCCCC", "note": "(single isomer, unassigned) [BPPcysAda, S-[2,3-bis(palmitoyloxy)-(2S or 2R)-propyl]-L-cysteinylcarboxy-3′Amino-3′-deoxyadenosine]", "values": [{"measurement": "antigen specific antibodies of the IgG1 subtype, intranasal", "setting": "intranasal administration", "value": "significantly enhances; also recorded: strongly increased"}, {"measurement": "antigen specific antibodies of the IgG2a isotype, intranasal", "setting": "intranasal administration", "value": "significantly enhances; also recorded: strongly increased"}, {"measurement": "expression of the IgG1 isotype, subcutaneous", "setting": "subcutaneous administration", "value": "strongly increased"}, {"measurement": "expression of the IgG2a isotype, subcutaneous", "setting": "subcutaneous administration", "value": "strongly increased"}]}]}
